# Reference: patent publication US20230301958A1, “SATRAPLATIN FOR USE IN THE TREATMENT OF LYMPHOID NEOPLASMS” (priority 2020, published 2023)
# Key:
# OCI Ly-3 cell line = assay: CellTiter-Glo luminescent cell viability assay, OCI-LY-3; format: cell-based, human; settings: PCNSL-like DLBCL cell line, FIG. 3K, 72h
# Description: (§1) Hereto, the 50% inhibitory concentration (IC50) was determined in said cancer cell lines using the CellTiter-Glo® (CTG) luminescent cell viability assay after a 72h incubation with different concentrations of the two drugs ranging from 10 nM to 100 uM.
# (§2) All cell lines were cultured in the media supplemented with 10-15% FBS, at a temperature of 37° C., 5% CO2 and 95% humidity. Cell viability was measured using the CTG Luminescent Cell Viability Assay by standard procedures. Satraplatin was purchased from MedChemExpress (China) and cisplatin from Qilu Pharm (China), respectively. 1 mM solution of both drugs were established for storage at -20° C. as previously described (Wosikowski K et al., Cancer Chemother Pharmacol (2007) 60(4):589-600).
# (§3) Cells were harvested during the logarithmic growth period and count cell number using Count-star. Cell concentrations were adjusted to 4.44×10^4 cells/mL with the respective culture medium. […] Luminescence was recorded using EnVision Multi Label Reader.
# (§4) In order to calculate absolute IC50 (EC50), a dose-response curve was fitted using a nonlinear regression model with a sigmoidal dose response. […] The absolute IC50 (EC50) was calculated according to the dose-response curve generated by GraphPad Prism 5.0. The standard deviation was calculated for each dose level and each cell line and is indicated by the bars.
# OCI-LY7 cells = assay: CellTiter-Glo luminescent cell viability assay, OCI-LY-7; format: cell-based, human; settings: DLBCL cell line, 72h
# Description: as §1, §2, §3, §4
# DLBCL cell lines = assay: CellTiter-Glo luminescent cell viability assay, DLBCL cell lines; format: cell-based, human; settings: 72h incubation, CTG assay
# Description: as §1, §2, §3, §4
# [1] = test system: B-cell lymphoma cell lines (Burkitt lymphoma, mantle cell lymphoma, DLBCL); assay: CellTiter-Glo luminescent cell viability assay, B-cell lymphoma cell lines; format: cell-based, human; settings: mantle cell lymphoma and DLBCL cell lines, FIGS. 1-3
# Description: as §1, §2, §3, §4
# [2] = test system: T-cell lymphoma cell lines; assay: CellTiter-Glo luminescent cell viability assay, T-cell lymphoma cell lines; format: cell-based, human; settings: particularly ALK+ ALCL, FIG. 4A-4D
# Description: as §1, §2, §3, §4
# [3] = test system: multiple myeloma cell lines; assay: CellTiter-Glo luminescent cell viability assay, multiple myeloma cell lines; format: cell-based, human; settings: FIG. 5
# Description: as §1, §2, §3, §4
# [4] = test system: lymphoma and myeloma cell lines; assay: CellTiter-Glo luminescent cell viability assay, panel of 41 lymphoma and multiple myeloma cell lines; format: cell-based, human
# Description: as §1, §2
# Cells were harvested during the logarithmic growth period and count cell number using Count-star. Cell concentrations were adjusted to 4.44×10^4 cells/mL with the respective culture medium. Then, 90 µL cell suspensions were added in triplicate to two 96-well plates (plates A and B) with the final cell density of 4×10^3 cells/well. […] For that purpose, plates were equilibrated at RT for approximately 30 min. Then, 50 µL CTG reagent was added to each well. The content was mixed for 5 min on an orbital shaker to induce cell lysis and the plate incubated at RT for 20 min to stabilize luminescent signal. Luminescence was recorded using EnVision Multi Label Reader.
# In order to calculate absolute IC50 (EC50), a dose-response curve was fitted using a nonlinear regression model with a sigmoidal dose response. The formula for calculating surviving rate is: The surviving rate (%) = (LumTest article-LumMedium control)/(LumNon-treated-LumMedium control)×100%. The absolute IC50 (EC50) was calculated according to the dose-response curve generated by GraphPad Prism 5.0. The standard deviation was calculated for each dose level and each cell line and is indicated by the bars.
# [5] = test system: metastatic prostate cancer; settings: SPARC trial, patients receiving satraplatin; cited from earlier work
# [6] = in vivo, po; cited from earlier work
# [7] = in vivo; cited from earlier work
SMILES,killing of OCI Ly-3 (OCI Ly-3 cell line),killing of OCI-LY7 cells compared to cisplatin (OCI-LY7 cells),IC50 values in DLBCL cell lines (DLBCL cell lines),"inducing cell death, compared to cisplatin [1]","inducing cell death, compared to cisplatin [2]","inducing cell death, compared to cisplatin [3]","relative sensitivity of certain cell lines ([4]; DOHH2, OCI Ly19, SUDHL5, OCI Ly3, Toledo, Z138, Daudi, SUDHL1, HuT78 cell lines, FIG. 6)","IC 50 values, killing of lymphoma cell lines ([4]; FIGS. 1-6, 72h incubation)",sensitivity of all cell lines described ([4]; all tested cell lines),patients showing a relevant PSA-response (decline of more than 50%) [5],nephro- or neurotoxicity in clinical trials [6],CNS penetration [7]
"CC(=O)[O][Pt]([NH2])([Cl])([Cl])([NH]C1CCCCC1)[O]C(C)=O [satraplatin, bis (acetato) ammine dichloro (cyclohexylamine) platinum (IV)]",very effectively killed,significantly superior,low micromolar or even sub-molar,at least equivalent to cisplatin,at least equivalent to cisplatin,at least equivalent to cisplatin,particularly sensitive,low micromolar concentrations or even lower,sensitive,25%,no or not relevant nephro- or neurotoxicity,clinically proven meaningful CNS penetration
N.N.[Cl][Pt][Cl] [cisplatin],–,–,low micromolar or even sub-molar,–,–,–,–,–,–,–,–,–
